{"source": "patent US7183075B2", "about": "“Purified and isolated potassium-chloride cotransporter nucleic acids and polypeptides and therapeutic and screening methods using same” (Vanderbilt University, priority 2000, dated 2007)", "key": {"mKCC4": {"target": "T1, mKCC4 (Mus musculus, UniProt Q9WVL3)", "T1 construct": "a full-length mKCC4 cDNA was used as a standard in the Xenopus expression vector pGEMHE; expressed in transfected cells; host or cells: Xenopus laevis oocytes injected with cRNA (pGEMHE, T7 transcript)", "T1 sequence (Q9WVL3 1-1083 L71X/L155X/L467X/L586X/L639X/L1023X)": "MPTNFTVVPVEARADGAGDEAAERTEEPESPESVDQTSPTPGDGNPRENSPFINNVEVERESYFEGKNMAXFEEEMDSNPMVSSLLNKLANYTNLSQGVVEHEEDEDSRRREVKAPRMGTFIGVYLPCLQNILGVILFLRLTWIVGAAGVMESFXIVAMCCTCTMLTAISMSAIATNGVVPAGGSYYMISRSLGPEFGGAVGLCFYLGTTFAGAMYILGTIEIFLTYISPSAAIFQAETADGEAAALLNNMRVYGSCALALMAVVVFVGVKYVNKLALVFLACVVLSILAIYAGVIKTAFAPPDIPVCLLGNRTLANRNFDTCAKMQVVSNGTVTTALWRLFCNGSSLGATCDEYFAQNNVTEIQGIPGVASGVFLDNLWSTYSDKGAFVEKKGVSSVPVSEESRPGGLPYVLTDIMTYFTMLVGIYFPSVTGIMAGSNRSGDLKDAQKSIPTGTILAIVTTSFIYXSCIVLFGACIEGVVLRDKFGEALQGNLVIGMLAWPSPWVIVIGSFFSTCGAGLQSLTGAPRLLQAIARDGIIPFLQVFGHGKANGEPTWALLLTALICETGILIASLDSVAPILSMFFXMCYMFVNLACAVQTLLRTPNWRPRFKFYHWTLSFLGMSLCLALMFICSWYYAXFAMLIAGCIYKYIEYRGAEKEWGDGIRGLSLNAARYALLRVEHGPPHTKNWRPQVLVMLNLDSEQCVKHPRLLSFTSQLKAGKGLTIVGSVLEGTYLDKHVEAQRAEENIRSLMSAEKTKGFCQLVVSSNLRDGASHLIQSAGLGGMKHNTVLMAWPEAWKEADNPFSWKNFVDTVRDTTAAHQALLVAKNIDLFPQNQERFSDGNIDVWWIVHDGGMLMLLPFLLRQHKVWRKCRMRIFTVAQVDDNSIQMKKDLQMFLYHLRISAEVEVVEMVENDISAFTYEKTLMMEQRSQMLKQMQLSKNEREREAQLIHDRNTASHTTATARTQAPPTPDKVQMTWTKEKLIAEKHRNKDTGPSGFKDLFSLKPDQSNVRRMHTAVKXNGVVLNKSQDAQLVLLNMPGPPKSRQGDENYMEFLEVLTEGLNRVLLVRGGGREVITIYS", "test": "86Rb+ uptake (K+-Cl- cotransport) in Xenopus oocytes injected with mKCC4 cRNA", "type": "cell-based", "details": "10 mM potassium salt of anion substitute vs 10 mM KCl reference; hypotonic", "description": "Oocytes were surgically collected from anesthetized female Xenopus adults under 0.17% tricaine and incubated for 1 hour with vigorous shaking in frog Ringer ND96 (96 mM sodium chloride, 2 mM potassium chloride, 1.8 mM calcium chloride, 1.0 mM magnesium chloride, and 5 mM Hepes/Tris, pH 7.4) in the presence of 2 mg/ml collagenase B. Oocytes were then washed four times in ND96, manually defolliculated, and incubated overnight in ND96 at 18° C. On the next day, defolliculated stage V–VI oocytes were injected with 50 nl of water or a solution containing cRNA at a concentration of 0.25–0.5 μg/μl (25 ng/oocyte). Oocytes were incubated at 17–18° C. in ND96 (96 mM sodium chloride, 2 mM potassium chloride, 1.8 mM calcium chloride, 1.0 mM magnesium chloride, and 5 mM Hepes/Tris, pH 7.4), supplemented with 2.5 mM sodium pyruvate and 5 mg/100 ml gentamicin, for 3–4 days. The incubation medium was changed every 24 hours. On the day of the experiment, oocytes were switched to Cl^−-free ND96 (96 mM Na^+ Na^+ isethionate, 2 mM K^+ gluconate, 6 mM Ca^2+ gluconate, 1 mM Mg^2+ gluconate, 5 mM Hepes, 2.5 mM sodium pyruvate, 5 mg/100 ml gentamicin, pH 7.4) for 2 hours prior to the uptake assay.\nFor functional expression and in vitro translation, a full-length mKCC4 cDNA was used as a standard in the Xenopus expression vector pGEMHE (Liman et al. (1992) Neuron 9:861–871). The resulting construct contains nucleotides 55–3812 of mKCC4 (SEQ ID NO:13). For functional comparison with mKCC4, a full-length rabbit KCC1 cDNA was subcloned into pGEMHE. […] […] Transcription product integrity was confirmed on agarose gels, and concentration was determined by absorbance reading at 260 nm (DU 640 available from Beckman of Fullerton, Calif.).\nK^+—Cl^− cotransport was assessed by measuring tracer ^86Rb^+ uptake (NEN® Life Science Products of Boston, Mass.) in experimental groups of at least 15 oocytes. […] All uptake solutions also contained 1.8 mM CaCl2, 1 mM MgCl2, 5 mM Hepes, pH 7.4, and were supplemented with 1 mM ouabain and […] ^86Rb^+. Isotonic conditions were generated by supplementing the same solutions with 3.5 g/100 ml sucrose to reach isosmolar conditions for oocytes (˜210 mOsm/kg). Ouabain was added to prevent ^86Rb^+ uptake via the Na^+—K^+-ATPase. The absence of extracellular Na^+ and the hypotonicity of the uptake medium prevented ^86Rb^+ uptake via the endogenous Na^+—K^+-2Cl^− cotransporter that is present in oocytes (Gamba et al. (1994) J Biol Chem 269:17713–17722).\nAll uptake assays were performed at 32° C. At the end of the uptake period, oocytes were washed five times in ice-cold uptake solution without isotope to remove extracellular fluid tracer. Oocytes were dissolved in 10% SDS, and tracer activity was determined for each oocyte by β-scintillation counting.\nTo determine the ion transport kinetics of KCC4 and KCC1, ^86Rb^+ uptake experiments were performed in variable concentrations of K^+ and Cl^−. […]"}, "hKCC3a": {"target": "T2, hKCC3a (Homo sapiens, UniProt Q9UHW9, L346X/L35X/L789X)", "T2 construct": "A full-length hKCC3a construct has also been generated for functional expression; expressed in transfected cells; host or cells: Xenopus laevis oocytes injected with cRNA", "T2 sequence (Q9UHW9 1-1150 L35X/L346X/L789X)": "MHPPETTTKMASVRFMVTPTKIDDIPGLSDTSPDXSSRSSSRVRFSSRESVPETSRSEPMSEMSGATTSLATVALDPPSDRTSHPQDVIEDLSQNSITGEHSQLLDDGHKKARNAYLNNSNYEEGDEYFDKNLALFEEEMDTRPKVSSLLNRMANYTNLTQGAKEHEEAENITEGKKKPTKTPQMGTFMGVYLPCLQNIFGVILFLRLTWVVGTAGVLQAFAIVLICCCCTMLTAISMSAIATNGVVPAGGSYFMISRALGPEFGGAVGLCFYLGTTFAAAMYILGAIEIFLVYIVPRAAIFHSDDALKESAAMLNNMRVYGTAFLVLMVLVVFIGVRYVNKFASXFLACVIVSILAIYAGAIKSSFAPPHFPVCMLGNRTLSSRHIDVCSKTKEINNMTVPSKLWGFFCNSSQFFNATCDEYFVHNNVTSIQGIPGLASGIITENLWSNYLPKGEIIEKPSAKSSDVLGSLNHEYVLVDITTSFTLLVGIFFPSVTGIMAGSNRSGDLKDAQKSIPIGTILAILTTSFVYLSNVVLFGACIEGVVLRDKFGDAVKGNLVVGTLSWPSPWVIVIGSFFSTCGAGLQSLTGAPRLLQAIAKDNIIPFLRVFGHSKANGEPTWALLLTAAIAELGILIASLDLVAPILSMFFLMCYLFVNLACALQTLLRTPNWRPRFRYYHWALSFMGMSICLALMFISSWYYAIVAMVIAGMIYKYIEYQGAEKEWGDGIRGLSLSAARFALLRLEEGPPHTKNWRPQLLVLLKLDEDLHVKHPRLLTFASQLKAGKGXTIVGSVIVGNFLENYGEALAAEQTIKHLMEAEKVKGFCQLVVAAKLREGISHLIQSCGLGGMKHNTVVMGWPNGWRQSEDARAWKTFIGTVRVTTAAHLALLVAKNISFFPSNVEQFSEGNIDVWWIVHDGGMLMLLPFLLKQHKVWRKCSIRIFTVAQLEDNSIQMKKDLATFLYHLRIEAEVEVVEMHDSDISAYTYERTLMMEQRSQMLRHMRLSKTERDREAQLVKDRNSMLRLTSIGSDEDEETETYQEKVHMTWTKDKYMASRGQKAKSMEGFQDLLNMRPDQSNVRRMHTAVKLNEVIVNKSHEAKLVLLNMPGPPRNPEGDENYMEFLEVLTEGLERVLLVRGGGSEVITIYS", "test": "86Rb+ uptake (K+-Cl- cotransport) in Xenopus oocytes injected with hKCC3a cRNA", "type": "cell-based"}, "[1]": {"system": "human red cell K^+—Cl^− cotransport", "details": "ML-7; physiological osmolality; cited from earlier work"}, "[2]": {"system": "KCC2^+/− heterozygous and wild type mice", "test": "PTZ seizure induction in wild type and KCC2+/- mice", "type": "in vivo, mouse", "details": "daily 60 mg/kg PTZ", "description": "A reduced threshold for induction of seizure activity was also observed in KCC2^+/− heterozygous mice. Seizures were induced in wild type and litter-matched KCC2^+/− mice by daily injections of 60 mg/kg pentylenetetrazole (PTZ), a blocker of the GABAA receptor. Animal behavior was observed during a one-hour interval following PTZ injection, and the severity of seizure induction was scored according to the following indicators: score=0, absence of seizure acitivity; score=1, ear and facial twitching; score=2, myoclonic body jerks; score=3, clonic forelimb convulsions […]; score=5, death. Mice assigned a score of 3, 4, or 5 were removed from the group. FIG. 34 summarizes the number of mice assigned a score of 1 or 2 as a function of time. A significant difference between wild type and KCC2^+/− heterozygous mice was observed, corresponding to an approximately 2-fold increase in the susceptibility of KCC2^+/− heterozygous mice to seizure activity."}}, "data": [{"smiles": "[Br-].[K+]", "note": "[KBr]", "values": [{"measurement": "86Rb+ influx in the presence of other anions, percentage of KCC4 function", "setting": "mKCC4", "value": "58±9", "unit": "%"}]}, {"smiles": "O=P([O-])(O)O.[K+]", "note": "[KH2PO4]", "values": [{"measurement": "86Rb+ influx in the presence of other anions, percentage of KCC4 function", "setting": "mKCC4", "value": "22±5.9", "unit": "%"}]}, {"smiles": "[I-].[K+]", "note": "[KI]", "values": [{"measurement": "86Rb+ influx in the presence of other anions, percentage of KCC4 function", "setting": "mKCC4", "value": "17±3.8", "unit": "%"}]}, {"smiles": "N#C[S-].[K+]", "note": "[KSCN]", "values": [{"measurement": "86Rb+ influx in the presence of other anions, percentage of KCC4 function", "setting": "mKCC4", "value": "did not support transport"}]}, {"smiles": "O=S(=O)(c1cccc2c(I)cccc12)N1CCCNCC1", "note": "[ML-7]", "values": [{"measurement": "K+-Cl- cotransport (86Rb+ uptake) by KCC3a in the presence of ML-7", "setting": "hKCC3a; 100 μM ML-7, 160 mOsm/kg", "value": "1698±298", "unit": "pmol/oocyte/hour"}, {"measurement": "effect on hKCC3a K+-Cl- cotransport", "setting": "hKCC3a; ML-7, 180 mOsm/kg", "value": "modest activation"}, {"measurement": "effect on K+-Cl- cotransport", "setting": "hKCC3a; ML-7, isotonic conditions", "value": "no effect"}, {"measurement": "effect on human red cell K+-Cl- cotransport", "setting": "[1]", "value": "modest activation"}]}, {"smiles": "C1CCc2nnnn2CC1", "note": "[PTZ, pentylenetetrazole]", "values": [{"measurement": "percentage of deaths in response to PTZ injection", "setting": "[2]; KCC2+/− heterozygous mice", "value": "Approximately 35%"}, {"measurement": "percentage of deaths in response to PTZ injection", "setting": "[2]; wild type mice", "value": "< 5", "unit": "%"}]}, {"smiles": "O=C([O-])[C@H](O)[C@@H](O)[C@H](O)[C@H](O)CO.[K+]", "note": "[potassium gluconate]", "values": [{"measurement": "86Rb+ influx in the presence of other anions, percentage of KCC4 function", "setting": "mKCC4", "value": "did not support transport"}]}]}
